Results from publication PMC9750858, “Rapid biosensor development using plant hormone receptors as reprogrammable scaffolds” (Nature Biotechnology, 2022).
Where a chain is given by its changes, count along the chain named. Where “and” joins values, the source holds several entries; their conditions need not be identical. Equal entries are not always repeated.

How the values were obtained:
PYR1^WIN [1] = biological target: T1, PYR1^WIN (Arabidopsis thaliana, UniProt O49686, A160I/D26G/E4G/F159A/K59Q/Y23H); experiment: Yeast transcriptional activation circuit Z4-PYR1/VP64-ΔN-HAB1, GFP reporter, PYR1^WIN; conditions: for whole-cell GFP fluorescence (Fig. 3b source data): 12 h, replicates
T1 sequence (Q9CAJ0 179-511, one chain of several): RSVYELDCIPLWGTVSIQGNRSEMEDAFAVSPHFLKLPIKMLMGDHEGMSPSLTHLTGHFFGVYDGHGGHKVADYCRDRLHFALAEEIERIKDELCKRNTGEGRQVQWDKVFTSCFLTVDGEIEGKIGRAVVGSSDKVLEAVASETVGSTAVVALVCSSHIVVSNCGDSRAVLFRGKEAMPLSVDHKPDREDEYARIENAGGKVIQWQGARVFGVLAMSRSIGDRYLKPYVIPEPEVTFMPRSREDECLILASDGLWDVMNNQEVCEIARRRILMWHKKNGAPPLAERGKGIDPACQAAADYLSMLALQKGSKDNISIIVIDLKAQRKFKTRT

PYR1^WIN / ΔN-HAB1 = biological target: T2, PYR1^WIN / ΔN-HAB1 (Arabidopsis thaliana, UniProt O49686, A160I/D26G/E4G/F159A/K59Q/Y23H); experiment: Ligand/receptor-mediated PP2C (ΔN-HAB1 phosphatase) inhibition, fluorogenic substrate, PYR1^WIN; format: biochemical
T2 construct: 6xHis (N); made in house; host or cells: E. coli BL21 (DE3) pLysS
T2 sequence (O49686 with tags, fused parts or gaps E4G/Y23H/D26G/K59Q/F159A/A160I): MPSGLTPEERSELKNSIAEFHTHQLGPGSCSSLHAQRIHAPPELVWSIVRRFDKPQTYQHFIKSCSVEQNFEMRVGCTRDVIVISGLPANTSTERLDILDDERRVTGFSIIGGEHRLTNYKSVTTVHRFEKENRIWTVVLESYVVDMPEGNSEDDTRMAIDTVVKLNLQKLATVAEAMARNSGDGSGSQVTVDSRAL
Description: Coding sequences of the cannabinoid sensors were cloned into the protein expression vector pET28a to encode 6×His-tag-receptor fusions. Constructs were sequenced and transformed into the BL21 (DE3) pLysS E. coli strain for heterologous expression with IPTG (1 mM), followed by purification, using affinity chromatography, as previously reported. In vitro validation of evolved sensors was performed by using recombinant sensors and ΔN-HAB1 (HAB1 Δ1–178, ref. [36]) proteins, as previously described. […] Cannabinoid concentration curves ranged from 4 to 10,000 nM, and median inhibitory concentrations for PP2C inhibition were obtained via fluorescent measurement in the presence of 1 mM 4-methylumbelliferyl phosphate.

PYR1^WIN [2] = biological target: T1, PYR1^WIN; experiment: Split NanoLuc luciferase complementation in yeast, NLuc^N-PYR1^WIN/NLuc^C-ΔN-HAB1; format: cell-based; design: >PYR1-WIN; expressed in transfected cells; host or cells: Saccharomyces cerevisiae; conditions: for LUM, split luciferase luminescence (Fig. 3c source data): replicates
[3] = tested on: PYR1-derived cannabinoid receptors (PYR1 mutants) binding HAB1
PYR1^WIN-M = biological target: T3, PYR1^WIN-M (Arabidopsis thaliana, UniProt O49686, A160I/D26G/E4G/F159A/H60P/K59Q/N90S/Y23H); experiment: ELISA-like plate assay, immobilized PYR1^WIN-M, biotinylated ΔN-HAB1^T+; format: binding; conditions: for ELISA signal generation, receptor cross-reactivity (source data): replicates, 212
T3 construct: made in house
T3 sequence (O49686 with tags, fused parts or gaps E4G/Y23H/D26G/K59Q/H60P/N90S/F159A/A160I): T2 sequence (O49686 with tags, fused parts or gaps E4G/Y23H/D26G/K59Q/F159A/A160I) with H60P, N90S

## Cc1c(C(=O)c2cccc3ccccc23)c2cccc3c2n1C(CN1CCOCC1)CO3 (single isomer, unassigned; (+)) [WIN, (+)-WIN 55,212-2]
PYR1^WIN [1]
  EC50: 28 nM
PYR1^WIN [1]; [Ligand] 0.0001 uM
  whole-cell GFP fluorescence (Fig. 3b source data): 1.509 and 1.618 and 1.562
PYR1^WIN [1]; [Ligand] 0.001 uM
  whole-cell GFP fluorescence (Fig. 3b source data): 1.581 and 1.833 and 1.779
PYR1^WIN [1]; [Ligand] 0.01 uM
  whole-cell GFP fluorescence (Fig. 3b source data): 2.798 and 2.733 and 2.756
PYR1^WIN [1]; [Ligand] 0.1 uM
  whole-cell GFP fluorescence (Fig. 3b source data): 4.085 and 3.967 and 4.046
PYR1^WIN [1]; [Ligand] 0.5 uM
  whole-cell GFP fluorescence (Fig. 3b source data): 4.169 and 4.494 and 4.506
PYR1^WIN [1]; [Ligand] 1 uM
  whole-cell GFP fluorescence (Fig. 3b source data): 4.972 and 4.595 and 4.6223
PYR1^WIN [1]; [Ligand] 5 uM
  whole-cell GFP fluorescence (Fig. 3b source data): 4.959 and 4.89 and 5.277
PYR1^WIN [1]; [Ligand] 10 uM
  whole-cell GFP fluorescence (Fig. 3b source data): 5.105 and 5.0049 and 4.874
PYR1^WIN [1]; [Ligand] 100 uM
  whole-cell GFP fluorescence (Fig. 3b source data): 4.986 and 5.066 and 4.884
PYR1^WIN / ΔN-HAB1
  EC50: 72 nM
PYR1^WIN / ΔN-HAB1; [Ligand] 0.004115 uM, replicates, 0.004115 µM
  inhibition of ΔN-HAB1 phosphatase activity relative to mock (Fig. 3a source data): -0.3447 and 3.327 and 8.558
PYR1^WIN / ΔN-HAB1; [Ligand] 0.012346 uM, replicates, 0.012346 µM
  inhibition of ΔN-HAB1 phosphatase activity relative to mock (Fig. 3a source data): 13.6846 and 17.5801
PYR1^WIN / ΔN-HAB1; [Ligand] 0.012346 uM, replicates, read-out: inhibition of ΔN-HAB1 phosphatase activity relative to mock (Fig. 3a source data)
  inhibition at 0.012346 µM: 13.7%
PYR1^WIN / ΔN-HAB1; [Ligand] 0.037037 uM, replicates, 0.037037 µM
  inhibition of ΔN-HAB1 phosphatase activity relative to mock (Fig. 3a source data): 27.3559 and 29.1117
PYR1^WIN / ΔN-HAB1; [Ligand] 0.037037 uM, replicates, read-out: inhibition of ΔN-HAB1 phosphatase activity relative to mock (Fig. 3a source data)
  inhibition at 0.037037 µM: 28.7%
PYR1^WIN / ΔN-HAB1; [Ligand] 0.111111 uM, replicates, 0.111111 µM
  inhibition of ΔN-HAB1 phosphatase activity relative to mock (Fig. 3a source data): 63.5233 and 58.9433
PYR1^WIN / ΔN-HAB1; [Ligand] 0.111111 uM, replicates, read-out: inhibition of ΔN-HAB1 phosphatase activity relative to mock (Fig. 3a source data)
  inhibition at 0.111111 µM: 61.1%
PYR1^WIN / ΔN-HAB1; [Ligand] 0.333333 uM, replicates, 0.333333 µM
  inhibition of ΔN-HAB1 phosphatase activity relative to mock (Fig. 3a source data): 83.1534 and 83.7629
PYR1^WIN / ΔN-HAB1; [Ligand] 0.333333 uM, replicates, read-out: inhibition of ΔN-HAB1 phosphatase activity relative to mock (Fig. 3a source data)
  inhibition at 0.333333 µM: 84.4%
PYR1^WIN / ΔN-HAB1; [Ligand] 1 uM, replicates, 1 µM
  inhibition of ΔN-HAB1 phosphatase activity relative to mock (Fig. 3a source data): 93.2666 and 92.7582
PYR1^WIN / ΔN-HAB1; [Ligand] 1 uM, replicates, read-out: inhibition of ΔN-HAB1 phosphatase activity relative to mock (Fig. 3a source data)
  inhibition at 1 µM: 93.4%
PYR1^WIN / ΔN-HAB1; [Ligand] 10 uM, replicates, 10 µM
  inhibition of ΔN-HAB1 phosphatase activity relative to mock (Fig. 3a source data): 93.1102 and 92.715
PYR1^WIN / ΔN-HAB1; [Ligand] 10 uM, replicates, read-out: inhibition of ΔN-HAB1 phosphatase activity relative to mock (Fig. 3a source data)
  inhibition at 10 µM: 97.6%
PYR1^WIN [2]
  EC50: 56 nM
PYR1^WIN [2]; [Ligand] 0.0001 uM
  LUM, split luciferase luminescence (Fig. 3c source data): 4.094 and 3.848 and 3.642
PYR1^WIN [2]; [Ligand] 0.001 uM
  LUM, split luciferase luminescence (Fig. 3c source data): 4.593 and 4.28 and 4.174
PYR1^WIN [2]; [Ligand] 0.01 uM
  LUM, split luciferase luminescence (Fig. 3c source data): 5.448 and 5.829 and 5.793
PYR1^WIN [2]; [Ligand] 0.1 uM
  LUM, split luciferase luminescence (Fig. 3c source data): 9.293 and 8.992 and 7.439
PYR1^WIN [2]; [Ligand] 1 uM
  LUM, split luciferase luminescence (Fig. 3c source data): 12.392 and 10.463 and 10.193
PYR1^WIN [2]; [Ligand] 10 uM
  LUM, split luciferase luminescence (Fig. 3c source data): 13.953 and 10.293 (2×)
[3]; clones from shuffled library CB-S1
  cannabinoid concentration to which CB-S1 library clones respond (as low as): 50 nM
[3]; selections conducted using a racemate
  stereoisomer recognized by the evolved WIN receptor: recognizes the biologically active (+)-WIN 55,212-2 stereoisomer
PYR1^WIN-M; cannabinoid at 2 nM
  ELISA signal generation, receptor cross-reactivity (source data): 1.487 and 1.277 and 1.151
PYR1^WIN-M; cannabinoid at 2 μM
  ELISA signal generation, receptor cross-reactivity (source data): 3.378 and 3.384 and 3.484
PYR1^WIN-M; saline, ligand 1e-6 uM
  ELISA absorbance signal (source data): 0.133 and 0.126 and 0.127
PYR1^WIN-M; saline, ligand 1e-5 uM
  ELISA absorbance signal (source data): 0.152 and 0.136 and 0.148
PYR1^WIN-M; saline, ligand 0.0001 uM
  ELISA absorbance signal (source data): 0.162 and 0.157 and 0.179
PYR1^WIN-M; saline, ligand 0.001 uM
  ELISA absorbance signal (source data): 0.26 and 0.252 and 0.274
PYR1^WIN-M; saline, ligand 0.01 uM
  ELISA absorbance signal (source data): 0.302 and 0.321 and 0.336
PYR1^WIN-M; saline, ligand 0.1 uM
  ELISA absorbance signal (source data): 0.327 and 0.325
PYR1^WIN-M; saline, ligand 1 uM
  ELISA absorbance signal (source data): 0.315 and 0.35 and 0.349
PYR1^WIN-M; saline, ligand 10 uM
  ELISA absorbance signal (source data): 0.341 and 0.349 and 0.35
PYR1^WIN-M; saliva, ligand 1e-6 uM
  ELISA absorbance signal (source data): 0.097 and 0.09 and 0.095
PYR1^WIN-M; saliva, ligand 1e-5 uM
  ELISA absorbance signal (source data): 0.096 and 0.098
PYR1^WIN-M; saliva, ligand 0.0001 uM
  ELISA absorbance signal (source data): 0.124 and 0.126 and 0.123
PYR1^WIN-M; saliva, ligand 0.001 uM
  ELISA absorbance signal (source data): 0.239 and 0.257 and 0.242
PYR1^WIN-M; saliva, ligand 0.01 uM
  ELISA absorbance signal (source data): 0.374 and 0.38 and 0.358
PYR1^WIN-M; saliva, ligand 0.1 uM
  ELISA absorbance signal (source data): 0.397 and 0.408 and 0.382
PYR1^WIN-M; saliva, ligand 1 uM
  ELISA absorbance signal (source data): 0.436 and 0.42 and 0.431
PYR1^WIN-M; serum, ligand 1e-6 uM
  ELISA absorbance signal (source data): 0.103 and 0.1 and 0.092
PYR1^WIN-M; serum, ligand 1e-5 uM
  ELISA absorbance signal (source data): 0.098 and 0.102
PYR1^WIN-M; serum, ligand 0.0001 uM
  ELISA absorbance signal (source data): 0.108 and 0.106 and 0.1
PYR1^WIN-M; serum, ligand 0.001 uM
  ELISA absorbance signal (source data): 0.141 and 0.195 and 0.127
PYR1^WIN-M; serum, ligand 0.01 uM
  ELISA absorbance signal (source data): 0.239 and 0.24
PYR1^WIN-M; serum, ligand 0.1 uM
  ELISA absorbance signal (source data): 0.319 and 0.268 and 0.325
PYR1^WIN-M; serum, ligand 1 uM
  ELISA absorbance signal (source data): 0.312 and 0.316 and 0.329
PYR1^WIN-M; urine, ligand 1e-6 uM
  ELISA absorbance signal (source data): 0.141 and 0.142 and 0.134
PYR1^WIN-M; urine, ligand 1e-5 uM
  ELISA absorbance signal (source data): 0.148 and 0.138
PYR1^WIN-M; urine, ligand 0.0001 uM
  ELISA absorbance signal (source data): 0.162 and 0.161 and 0.149
PYR1^WIN-M; urine, ligand 0.001 uM
  ELISA absorbance signal (source data): 0.248 and 0.231 and 0.225
PYR1^WIN-M; urine, ligand 0.01 uM
  ELISA absorbance signal (source data): 0.338 and 0.33 and 0.313
PYR1^WIN-M; urine, ligand 0.1 uM
  ELISA absorbance signal (source data): 0.356 and 0.348 and 0.341
PYR1^WIN-M; urine, ligand 1 uM
  ELISA absorbance signal (source data): 0.387 and 0.372 and 0.376
